Measurements reported in PubChem BioAssay AID248 (DTP/NCI, 2004).
Toxic doses and inconclusive results are not listed. Cut-off read from the data, not from the text of the source: active = T/C of 150% or more; inactive = T/C below 125%.

Test system: L1210 leukemia ip in BDF1 mice, survival T/C
Assay: NCI In Vivo Anticancer Drug Screen. Data for tumor model L1210 Leukemia (intraperitoneal) in B6D2F1 (BDF1) mice
Settings: endpoint: mean survival time, higher = longer survival
In short: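 Value reflects the ratio of survival in compound-treated mice to survival in vehicle-treated controls, with both groups carrying the same transplanted tumor.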

[1] = dose: 25.0 mg/kg/injection, schedule: Q04DX002 (ip), vehicle: Klucel (hydroxypropylcellulose) (HPC)
[2] = dose: 100.0 mg/kg/injection, schedule: Q01DX001 (ip), vehicle: saline
[3] = dose: 100.0 mg/kg/injection, schedule: Q01DX009 (ip), vehicle: saline
[4] = dose: 200.0 mg/kg/injection, schedule: Q01DX001 (ip), vehicle: saline
[5] = dose: 200.0 mg/kg/injection, schedule: Q01DX009 (ip), vehicle: saline
[6] = dose: 100.0 mg/kg/injection, schedule: Q01DX001 (ip), vehicle: Klucel (hydroxypropylcellulose) (HPC)
[7] = dose: 100.0 mg/kg/injection, schedule: Q01DX009 (ip), vehicle: Klucel (hydroxypropylcellulose) (HPC)
[8] = dose: 100.0 mg/kg/injection, schedule: Q04DX003 (ip), vehicle: Klucel (hydroxypropylcellulose) (HPC)
[9] = dose: 200.0 mg/kg/injection, schedule: Q01DX001 (ip), vehicle: Klucel (hydroxypropylcellulose) (HPC)
[10] = dose: 200.0 mg/kg/injection, schedule: Q01DX009 (ip), vehicle: Klucel (hydroxypropylcellulose) (HPC)
[11] = dose: 200.0 mg/kg/injection, schedule: Q04DX003 (ip), vehicle: Klucel (hydroxypropylcellulose) (HPC)
[12] = dose: 400.0 mg/kg/injection, schedule: Q01DX001 (ip), vehicle: Klucel (hydroxypropylcellulose) (HPC)
[13] = dose: 400.0 mg/kg/injection, schedule: Q01DX009 (ip), vehicle: Klucel (hydroxypropylcellulose) (HPC)
[14] = dose: 400.0 mg/kg/injection, schedule: Q04DX003 (ip), vehicle: Klucel (hydroxypropylcellulose) (HPC)
[15] = dose: 100.0 mg/kg/injection, schedule: Q04DX002 (ip), vehicle: saline
[16] = dose: 100.0 mg/kg/injection, schedule: Q01DX001 (ip), vehicle: carboxymethylcellulose (CMC)
[17] = dose: 200.0 mg/kg/injection, schedule: Q01DX001 (ip), vehicle: carboxymethylcellulose (CMC)
[18] = dose: 400.0 mg/kg/injection, schedule: Q01DX001 (ip), vehicle: carboxymethylcellulose (CMC)
[19] = dose: 100.0 mg/kg/injection, schedule: Q04DX003 (ip), vehicle: saline
[20] = dose: 400.0 mg/kg/injection, schedule: Q04DX003 (ip), vehicle: saline

Measured: T/C

CCS(=O)(=O)/C=C/c1ccco1
inactive: dose: 12.5 mg/kg/injection, schedule: Q04DX003 (ip), vehicle: carboxymethylcellulose (CMC) 98 % of control | dose: 25.0 mg/kg/injection, schedule: Q04DX003 (ip), vehicle: carboxymethylcellulose (CMC) 95 % of control

Cc1ccc(Oc2cccc3c2CC[N+](C)(C)C3)cc1
inactive: dose: 6.25 mg/kg/injection, schedule: Q04DX002 (ip), vehicle: Klucel (hydroxypropylcellulose) (HPC) 96 % of control | dose: 12.5 mg/kg/injection, schedule: Q01DX001 (ip), vehicle: Klucel (hydroxypropylcellulose) (HPC) 97 % of control | dose: 12.5 mg/kg/injection, schedule: Q04DX002 (ip), vehicle: Klucel (hydroxypropylcellulose) (HPC) 96 % of control | [1] 100 % of control | dose: 50.0 mg/kg/injection, schedule: Q01DX001 (ip), vehicle: Klucel (hydroxypropylcellulose) (HPC) 94 % of control

CC(=O)OC1/C(=C/c2ccco2)CCC2CCCCC21C (stereo not drawn)
inactive: dose: 50.0 mg/kg/injection, schedule: Q01DX009 (ip), vehicle: saline 96 % of control | [2] 91 % of control | [3] 103 % of control | [4] 88 % of control | [5] 108 % of control | dose: 400.0 mg/kg/injection, schedule: Q01DX001 (ip), vehicle: saline 93 % of control

O=S1(=O)CC(c2ccc(Cl)cc2)Nc2ccccc21 (stereo not drawn)
inactive: [6] 87 % of control | [7] 90 % of control | [8] 103 % of control | [9] 93 % of control | [10] 90 % of control | [11] 100 % of control | [12] 93 % of control | [13] 93 % of control | [14] 92 % of control

COP(=O)(OC)OC=C(Cl)Cl
inactive: dose: 25.0 mg/kg/injection, schedule: Q04DX002 (ip), vehicle: saline 94 % of control | dose: 50.0 mg/kg/injection, schedule: Q04DX002 (ip), vehicle: saline 105 % of control | [15] 98 % of control

N=c1nc(N)c(N)c(N)n1O
inactive: [16] 94 % of control | [17] 97 % of control | [18] 97 % of control

CN(C)N=Nc1ccc(CCCC(=O)NN)cc1
inactive: dose: 18.0 mg/kg/injection, schedule: Q01DX009 (ip), vehicle: other 103 % of control | dose: 22.0 mg/kg/injection, schedule: Q01DX Z (ip), vehicle: carboxymethylcellulose (CMC) 114 % of control | dose: 28.0 mg/kg/injection, schedule: Q01DX009 (ip), vehicle: other 111 % of control | [16] 111 % of control | [17] 113 % of control

CC(=O)SCCNCCNC1CC2CCC1C2 (stereo not drawn)
inactive: dose: 1.25 mg/kg/injection, schedule: Q01DX009 (ip), vehicle: saline 94 % of control | dose: 2.5 mg/kg/injection, schedule: Q01DX009 (ip), vehicle: saline 97 % of control | dose: 5.0 mg/kg/injection, schedule: Q01DX009 (ip), vehicle: saline 100 % of control | dose: 7.2 mg/kg/injection, schedule: Q01DX009 (ip), vehicle: saline 94 % of control | dose: 10.0 mg/kg/injection, schedule: Q01DX001 (ip), vehicle: saline 92 % of control | dose: 10.0 mg/kg/injection, schedule: Q04DX003 (ip), vehicle: saline 99 % of control | dose: 11.0 mg/kg/injection, schedule: Q01DX009 (ip), vehicle: saline 92 % of control | dose: 16.5 mg/kg/injection, schedule: Q01DX009 (ip), vehicle: saline 90 % of control | dose: 20.0 mg/kg/injection, schedule: Q01DX001 (ip), vehicle: saline 90 % of control | dose: 23.0 mg/kg/injection, schedule: Q01DX009 (ip), vehicle: saline 88 % of control | dose: 40.0 mg/kg/injection, schedule: Q01DX001 (ip), vehicle: saline 95 % of control

O=C1C(Br)=C(c2ccccc2)C(=O)C(Br)=C1c1ccccc1
inactive: [16] 90 % of control | [17] 92 % of control | [18] 97 % of control

CCOc1ccc([N+](=O)[O-])cc1N(C)C(C)=O
inactive: dose: 75.0 mg/kg/injection, schedule: Q01DX001 (ip), vehicle: saline 102 % of control | dose: 150.0 mg/kg/injection, schedule: Q01DX001 (ip), vehicle: saline 102 % of control | dose: 300.0 mg/kg/injection, schedule: Q01DX001 (ip), vehicle: saline 107 % of control

O=C(Nc1ccc(Cl)cc1)NC1CCCCC1
inactive: [8] 92 % of control | [11] 92 % of control | [14] 92 % of control

CCSC(=O)Nc1cccc(O)c1
inactive: dose: 100.0 mg/kg/injection, schedule: Q01DX001 (ip), vehicle: saline + alcohol 94 % of control | dose: 200.0 mg/kg/injection, schedule: Q01DX001 (ip), vehicle: saline + alcohol 94 % of control | dose: 400.0 mg/kg/injection, schedule: Q01DX001 (ip), vehicle: saline + alcohol 93 % of control

O=C1CNC(=O)N1CCCl
inactive: dose: 50.0 mg/kg/injection, schedule: Q04DX003 (ip), vehicle: saline 100 % of control | [3] 100 % of control | [19] 103 % of control | [5] 104 % of control | dose: 400.0 mg/kg/injection, schedule: Q01DX009 (ip), vehicle: saline 113 % of control | [20] 94 % of control

CCC(C)NP(=O)(OC1CC(C)(C)N(O)C(C)(C)C1)OC1CC(C)(C)N(O)C(C)(C)C1 (stereo not drawn)
inactive: dose: 50.0 mg/kg/injection, schedule: Q01DX001 (ip), vehicle: water 98 % of control | dose: 100.0 mg/kg/injection, schedule: Q01DX001 (ip), vehicle: water 98 % of control | dose: 200.0 mg/kg/injection, schedule: Q01DX001 (ip), vehicle: water 94 % of control

O=C(Nc1ccc(F)cc1)C(Br)C(Br)c1ccccc1 (stereo not drawn)
inactive: [7] 88 % of control | [10] 102 % of control | [13] 91 % of control

Nc1cc(Cl)ccc1O
inactive: [2] 98 % of control | [4] 91 % of control

NCCCNCC1C(c2ccccc2)C1c1ccccc1 (stereo not drawn)
inactive: [1] 100 % of control | dose: 50.0 mg/kg/injection, schedule: Q04DX002 (ip), vehicle: Klucel (hydroxypropylcellulose) (HPC) 114 % of control

NC(=S)Nc1ccncc1
inactive: dose: 100.0 mg/kg/injection, schedule: Q04DX002 (ip), vehicle: Klucel (hydroxypropylcellulose) (HPC) 92 % of control | dose: 200.0 mg/kg/injection, schedule: Q04DX002 (ip), vehicle: Klucel (hydroxypropylcellulose) (HPC) 106 % of control | dose: 400.0 mg/kg/injection, schedule: Q04DX002 (ip), vehicle: Klucel (hydroxypropylcellulose) (HPC) 95 % of control

CCN(CC)CCNCC(Cc1ccccc1)c1ccccc1 (stereo not drawn)
inactive: [15] 99 % of control | dose: 200.0 mg/kg/injection, schedule: Q04DX002 (ip), vehicle: saline 105 % of control

C/C(CCC(=O)OC(C)(C)C)=N\N(C)C
inactive: [19] 93 % of control | dose: 200.0 mg/kg/injection, schedule: Q04DX003 (ip), vehicle: saline 91 % of control | [20] 111 % of control

CC(=O)n1[nH]c(=O)c2ccccc2c1=O
inactive: [6] 103 % of control | [9] 105 % of control | [12] 103 % of control
